Results as given in ChEMBL document CHEMBL5214896, “Discovery of Selective Pituitary Adenylate Cyclase 1 Receptor (PAC1R) Antagonist Peptides Potent in a Maxadilan/PACAP38-Induced Increase in Blood Flow Pharmacodynamic Model” (J Med Chem, 2021).
Each block holds one compound with its values, some of them ahead of it. Residues, ends and D or L forms follow the SMILES beside them.

What was measured:
[1] = molecular target: T1, Pituitary adenylate cyclase-activating polypeptide type I receptor (Homo sapiens, UniProt P41586); experiment: Agonist activity at PAC1R in human SH-SY5Y cells assessed as cAMP accumulation incubated for 60 mins by Eu-cAMP tracer based LANCE ultra cAMP assay; assay type: cell-based
Target sequence in this assay (P41586 whole entry): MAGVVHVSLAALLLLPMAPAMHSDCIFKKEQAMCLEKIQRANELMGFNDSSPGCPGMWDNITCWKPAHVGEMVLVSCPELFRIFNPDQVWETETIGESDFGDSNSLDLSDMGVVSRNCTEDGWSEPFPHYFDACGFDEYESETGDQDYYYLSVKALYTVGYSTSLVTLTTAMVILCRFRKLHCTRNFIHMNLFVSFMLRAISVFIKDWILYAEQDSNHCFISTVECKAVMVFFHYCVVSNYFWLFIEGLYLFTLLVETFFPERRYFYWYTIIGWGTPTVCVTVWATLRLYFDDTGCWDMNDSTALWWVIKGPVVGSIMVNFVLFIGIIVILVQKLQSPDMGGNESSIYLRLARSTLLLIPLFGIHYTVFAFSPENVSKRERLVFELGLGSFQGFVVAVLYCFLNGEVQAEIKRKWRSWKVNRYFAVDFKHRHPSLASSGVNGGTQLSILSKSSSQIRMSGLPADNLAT

[2] = molecular target: T2, Vasoactive intestinal polypeptide receptor 2 (Homo sapiens, UniProt P41587); experiment: Agonist activity at VPAC2 in human SH-SY5Y cells assessed as cAMP accumulation incubated for 60 mins by Eu-cAMP tracer based LANCE ultra cAMP assay; assay type: functional, cell-based
T2 sequence (P41587 whole entry): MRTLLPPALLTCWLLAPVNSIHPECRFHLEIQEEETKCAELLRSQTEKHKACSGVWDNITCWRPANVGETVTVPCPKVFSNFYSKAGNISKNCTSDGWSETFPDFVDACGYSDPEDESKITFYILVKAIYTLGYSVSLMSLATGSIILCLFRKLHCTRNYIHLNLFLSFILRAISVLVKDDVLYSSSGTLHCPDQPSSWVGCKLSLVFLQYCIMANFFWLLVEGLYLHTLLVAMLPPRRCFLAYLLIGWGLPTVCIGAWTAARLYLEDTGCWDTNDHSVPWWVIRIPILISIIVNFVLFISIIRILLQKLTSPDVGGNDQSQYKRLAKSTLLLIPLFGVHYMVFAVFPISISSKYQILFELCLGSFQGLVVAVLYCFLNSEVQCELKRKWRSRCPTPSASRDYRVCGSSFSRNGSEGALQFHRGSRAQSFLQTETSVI

[3] = molecular target: T3, Vasoactive intestinal polypeptide receptor 1 (Homo sapiens, UniProt P32241); experiment: Agonist activity at VPAC1 in human SH-SY5Y cells assessed as cAMP accumulation incubated for 60 mins by Eu-cAMP tracer based LANCE ultra cAMP assay; assay type: functional, cell-based
T3 sequence (P32241 whole entry): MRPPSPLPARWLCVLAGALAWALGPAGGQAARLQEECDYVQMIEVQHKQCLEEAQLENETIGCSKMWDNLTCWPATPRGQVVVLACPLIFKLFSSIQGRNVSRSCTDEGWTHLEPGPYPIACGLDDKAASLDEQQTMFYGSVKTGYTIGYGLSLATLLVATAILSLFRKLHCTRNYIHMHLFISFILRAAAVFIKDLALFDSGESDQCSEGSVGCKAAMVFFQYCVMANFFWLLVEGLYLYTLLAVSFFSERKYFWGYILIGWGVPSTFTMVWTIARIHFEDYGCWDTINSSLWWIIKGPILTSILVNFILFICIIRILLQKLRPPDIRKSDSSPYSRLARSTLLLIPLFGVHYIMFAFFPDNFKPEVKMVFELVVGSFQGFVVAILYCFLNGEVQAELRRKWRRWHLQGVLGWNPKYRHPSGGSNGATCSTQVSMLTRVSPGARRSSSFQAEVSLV

[4] = molecular target: T1, Pituitary adenylate cyclase-activating polypeptide type I receptor; experiment: Antagonist activity at PAC1R in human SH-SY5Y cells assessed as inhibition of PACAP38-induced cAMP accumulation pre-incubated for 30 mins followed by agonist addition and measured after 75 mins by Eu-cAMP tracer based LANCE ultra cAMP assay; assay type: cell-based
[5] = molecular target: T3, Vasoactive intestinal polypeptide receptor 1; experiment: Antagonist activity at VPAC1 in human SH-SY5Y cells assessed as inhibition of PACAP38-induced cAMP accumulation pre-incubated for 30 mins followed by agonist addition and measured after 75 mins by Eu-cAMP tracer based LANCE ultra cAMP assay; assay type: functional, cell-based
[6] = molecular target: T2, Vasoactive intestinal polypeptide receptor 2; experiment: Antagonist activity at VPAC2 in human SH-SY5Y cells assessed as inhibition of PACAP38-induced cAMP accumulation pre-incubated for 30 mins followed by agonist addition and measured after 75 mins by Eu-cAMP tracer based LANCE ultra cAMP assay; assay type: functional, cell-based
[7] = Cmax in Sprague-Dawley rat at 10 mg/kg,sc measured upto 6 hrs by LC-MS analysis; assay type: ADME, organism-based; parameters: dose 10 mg/kg, time < 6 hrs, route sc; settings: in vivo
[8] = Volume of distribution at steady state in Sprague-Dawley rat at 2 mg/kg,iv measured upto 6 hrs by LC-MS analysis; assay type: ADME, organism-based; settings: in vivo, read-out: Vdss
[9] = Bioavailability in Sprague-Dawley rat at 10 mg/kg,sc measured upto 6 hrs by LC-MS analysis; assay type: ADME, organism-based; settings: in vivo
[10] = AUC (0-infinity) in Sprague-Dawley rat at 10 mg/kg,sc measured upto 6 hrs by LC-MS analysis; assay type: ADME, organism-based; parameters: dose 10 mg/kg, time < 6 hrs, route sc; settings: in vivo
[11] = molecular target: T4, Pituitary adenylate cyclase-activating polypeptide type I receptor (Rattus norvegicus) (UniProt P32215); experiment: Antagonist activity at PAC1R in rat RG2 cells assessed as inhibition of PACAP38-induced cAMP accumulation pre-incubated for 30 mins followed by agonist addition and measured after 75 mins by Eu-cAMP tracer based LANCE ultra cAMP assay; assay type: cell-based; settings: filed as antagonist, time 105.0 min
T4 sequence (whole entry): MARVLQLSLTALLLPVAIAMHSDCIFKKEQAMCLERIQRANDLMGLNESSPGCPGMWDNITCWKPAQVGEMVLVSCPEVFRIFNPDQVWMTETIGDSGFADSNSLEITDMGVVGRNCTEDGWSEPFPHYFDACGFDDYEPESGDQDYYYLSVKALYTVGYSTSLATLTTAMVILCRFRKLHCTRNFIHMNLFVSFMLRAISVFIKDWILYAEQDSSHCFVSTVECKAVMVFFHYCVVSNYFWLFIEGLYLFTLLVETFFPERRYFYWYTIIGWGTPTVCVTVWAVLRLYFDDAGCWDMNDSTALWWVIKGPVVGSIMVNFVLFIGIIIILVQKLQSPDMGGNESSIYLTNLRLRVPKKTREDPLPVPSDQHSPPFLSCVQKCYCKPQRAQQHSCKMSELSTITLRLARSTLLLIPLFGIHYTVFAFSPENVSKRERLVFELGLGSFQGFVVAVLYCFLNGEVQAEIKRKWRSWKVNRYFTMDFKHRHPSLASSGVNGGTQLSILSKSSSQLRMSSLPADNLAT

[12] = molecular target: T4, Pituitary adenylate cyclase-activating polypeptide type I receptor (Rattus norvegicus); experiment: Antagonist activity at PAC1R in rat RG2 cells assessed as inhibition of Maxadilan-induced cAMP accumulation pre-incubated for 30 mins followed by agonist addition and measured after 75 mins by Eu-cAMP tracer based LANCE ultra cAMP assay; assay type: cell-based; settings: filed as antagonist, time 105.0 min
[13] = Cmax in Sprague-Dawley rat at 2 mg/kg,iv measured upto 6 hrs by LC-MS analysis; assay type: ADME, organism-based; parameters: time < 6 hrs, dose 2 mg/kg, route iv; settings: in vivo
[14] = molecular target: T1, Pituitary adenylate cyclase-activating polypeptide type I receptor; experiment: Antagonist activity at PAC1R in human SH-SY5Y cells assessed as inhibition of Maxadilan-induced cAMP accumulation pre-incubated for 30 mins followed by agonist addition and measured after 75 mins by Eu-cAMP tracer based LANCE ultra cAMP assay; assay type: cell-based; settings: filed as antagonist, time 105.0 min
Target sequence in this assay (P41586 21-468 limits assumed): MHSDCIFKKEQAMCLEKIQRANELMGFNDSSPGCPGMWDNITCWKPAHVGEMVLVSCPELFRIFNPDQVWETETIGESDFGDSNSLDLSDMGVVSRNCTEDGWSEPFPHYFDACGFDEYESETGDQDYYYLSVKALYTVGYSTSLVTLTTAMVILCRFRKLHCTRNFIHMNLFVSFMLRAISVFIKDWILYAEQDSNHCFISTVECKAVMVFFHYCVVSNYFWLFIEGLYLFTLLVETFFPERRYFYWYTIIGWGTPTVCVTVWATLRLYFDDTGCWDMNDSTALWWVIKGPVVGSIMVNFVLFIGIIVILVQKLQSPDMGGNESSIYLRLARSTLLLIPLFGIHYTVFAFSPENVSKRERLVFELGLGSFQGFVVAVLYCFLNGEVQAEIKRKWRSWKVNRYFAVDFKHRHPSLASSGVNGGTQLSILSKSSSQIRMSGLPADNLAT

Rattus norvegicus = experiment: In vivo Antagonist activity at Maxadilan-induced Sprague-Dawley rat assessed as reduction in Maxadilan-induced blood flow at 0.3 mg/kg,sc measured after 45 mins; assay type: functional; parameters: scale not given: the % may be the effect or the level left; settings: 0.75 h
[15] = Tmax in Sprague-Dawley rat at 10 mg/kg,sc measured upto 6 hrs by LC-MS analysis; assay type: ADME, organism-based; settings: in vivo
[16] = AUC (0-infinity) in Sprague-Dawley rat at 2 mg/kg,iv measured upto 6 hrs by LC-MS analysis; assay type: ADME, organism-based; parameters: dose 2 mg/kg, time < 6 hrs, route iv; settings: in vivo
[17] = Half life in Sprague-Dawley rat at 2 mg/kg,iv measured upto 6 hrs by LC-MS analysis; assay type: ADME, organism-based; settings: in vivo
[18] = Half life in Sprague-Dawley rat at 10 mg/kg,sc measured upto 6 hrs by LC-MS analysis; assay type: ADME, organism-based; settings: in vivo
[19] = Clearance in Sprague-Dawley rat at 2 mg/kg,iv measured upto 6 hrs by LC-MS analysis; assay type: ADME, organism-based; settings: in vivo

EC50 [1]: 30 pM
EC50 [2]: 60 pM
EC50 [3]: 30 pM
Structure (SMILES): CC[C@H](C)[C@H](NC(=O)CNC(=O)[C@H](CC(=O)O)NC(=O)[C@H](CO)NC(=O)[C@@H](N)Cc1cnc[nH]1)C(=O)N[C@@H](Cc1ccccc1)C(=O)N[C@H](C(=O)N[C@@H](CC(=O)O)C(=O)N[C@@H](CO)C(=O)N[C@@H](Cc1ccc(O)cc1)C(=O)N[C@@H](CO)C(=O)N[C@@H](CCCNC(=N)N)C(=O)N[C@@H](Cc1ccc(O)cc1)C(=O)N[C@@H](CCCNC(=N)N)C(=O)N[C@@H](CCCCN)C(=O)N[C@@H](CCC(N)=O)C(=O)N[C@@H](CCSC)C(=O)N[C@@H](C)C(=O)N[C@H](C(=O)N[C@@H](CCCCN)C(=O)N[C@@H](CCCCN)C(=O)N[C@@H](Cc1ccc(O)cc1)C(=O)N[C@@H](CC(C)C)C(=O)N[C@@H](C)C(=O)N[C@@H](C)C(=O)N[C@H](C(=O)N[C@@H](CC(C)C)C(=O)NCC(=O)N[C@@H](CCCCN)C(=O)N[C@@H](CCCNC(=N)N)C(=O)N[C@@H](CCCCN)C(=O)N[C@@H](Cc1ccc(O)cc1)C(=O)N[C@@H](CCCCN)C(=O)N[C@@H](CCC(N)=O)C(=O)N[C@@H](CCCNC(=N)N)C(=O)N[C@H](C(=O)N[C@@H](CCCCN)C(=O)N[C@@H](CC(N)=O)C(=O)N[C@@H](CCCCN)C(N)=O)C(C)C)C(C)C)C(C)C)[C@@H](C)O

IC50 [4]: 3500 pM
IC50 [5]: 118000 pM
IC50 [6]: 4500 pM
Structure (SMILES): CSCC[C@H](NC(=O)[C@H](CCC(N)=O)NC(=O)[C@H](CCCCN)NC(=O)[C@H](CCCNC(=N)N)NC(=O)[C@H](Cc1ccc(O)cc1)NC(=O)[C@H](CCCNC(=N)N)NC(=O)[C@H](CO)NC(=O)[C@H](Cc1ccc(O)cc1)NC(=O)[C@H](CO)NC(=O)[C@H](CC(=O)O)NC(=O)[C@@H](NC(=O)[C@@H](N)Cc1ccccc1)[C@@H](C)O)C(=O)N[C@@H](C)C(=O)N[C@H](C(=O)N[C@@H](CCCCN)C(=O)N[C@@H](CCCCN)C(=O)N[C@@H](Cc1ccc(O)cc1)C(=O)N[C@@H](CC(C)C)C(=O)N[C@@H](C)C(=O)N[C@@H](C)C(=O)N[C@H](C(=O)N[C@@H](CC(C)C)C(=O)NCC(=O)N[C@@H](CCCCN)C(=O)N[C@@H](CCCNC(=N)N)C(=O)N[C@@H](Cc1ccc(O)cc1)C(=O)N[C@@H](CCCCN)C(=O)N[C@@H](CCC(N)=O)C(=O)N[C@@H](CCCNC(=N)N)C(=O)N[C@H](C(=O)N[C@@H](CCCCN)C(=O)N[C@@H](CC(N)=O)C(=O)N[C@@H](CCCCN)C(N)=O)C(C)C)C(C)C)C(C)C

Cmax [7]: 1110 nM
Vd [8]: 0.217 L/kg
bioavailability [9]: 28%
AUC(0-inf) [10]: 1.65 µM·h
IC90 [11]: 170 pM
IC90 [12]: 140 pM
IC90 ([4]; filed as antagonist, time 105.0 min): 420 pM
Cmax [13]: 4170 nM
IC90 [14]: 120 pM
Tmax [15]: 15 min
AUC(0-inf) [16]: 1.16 µM·h
half-life [17]: 58.1 min
half-life [18]: 41.3 min
clearance [19]: 6.55 mL/min/kg
Structure (SMILES): CC[C@H](C)[C@H](NC(=O)[C@H](C)NC(=O)[C@H](CCCCN)NC(=O)[C@H](CCCNC(=N)N)NC(=O)[C@H](Cc1ccccc1)NC(=O)[C@H](CCC(N)=O)NC(=O)[C@@H]1CSSC[C@H](N)CC(=O)N[C@@H](CC(=O)O)C(=O)N[C@@H](C)C(=O)N[C@@H]([C@@H](C)O)C(=O)N1)C(=O)N[C@@H](CC(=O)O)C(=O)N[C@@H](CC(=O)O)C(=O)N[C@H]1CSSC[C@@H](C(=O)N[C@@H](CCSC)C(=O)N[C@@H](CCCCN)C(=O)N[C@@H](CCC(N)=O)C(=O)N[C@@H](CCCCN)C(=O)N[C@@H](CCCCN)C(=O)N[C@@H](CCCCN)C(=O)N[C@@H](CCC(=O)O)C(=O)N[C@@H](Cc2c[nH]c3ccccc23)C(=O)N[C@@H](CCCCN)C(=O)N[C@@H](C)C(=O)NCC(N)=O)NC(=O)[C@H](C)NC(=O)[C@H](CCCCN)NC(=O)[C@H](Cc2ccccc2)NC(=O)[C@H](C(C)C)NC(=O)[C@H](CO)NC(=O)[C@H](CO)NC(=O)[C@H](Cc2cnc[nH]2)NC(=O)[C@H](Cc2ccc(O)cc2)NC(=O)[C@H](C)NC(=O)[C@H](CCC(N)=O)NC(=O)[C@H](CCCNC(=N)N)NC(=O)[C@H](C)NC1=O (HELM PEPTIDE1{[N[C@@H](CS[*:3])CC(=O)[*:2]].D.A.T.C.Q.F.R.K.A.I.D.D.C.A.R.Q.A.Y.H.S.S.V.F.K.A.C.M.K.Q.K.K.K.E.W.K.A.G.[am]}$PEPTIDE1,PEPTIDE1,1:R3-5:R3|PEPTIDE1,PEPTIDE1,14:R3-27:R3$$$V2.0)
Activity (Rattus norvegicus): 110%
